Measurements from patent US9040545B2, “Heterocyclyl pyrazolopyrimidine analogues as selective JAK inhibitors” (Cellzome Limited, priority 2010, dated 2015).

Biological target: T1, Aurora A (Homo sapiens, UniProt O14965)
T1 construct: cell lysates from Jurkat cells (ATCC TIB-152) used; endogenous in cells; host or cells: Jurkat cells (ATCC TIB-152), treated with pervanadate
T1 sequence (O14965 1-403): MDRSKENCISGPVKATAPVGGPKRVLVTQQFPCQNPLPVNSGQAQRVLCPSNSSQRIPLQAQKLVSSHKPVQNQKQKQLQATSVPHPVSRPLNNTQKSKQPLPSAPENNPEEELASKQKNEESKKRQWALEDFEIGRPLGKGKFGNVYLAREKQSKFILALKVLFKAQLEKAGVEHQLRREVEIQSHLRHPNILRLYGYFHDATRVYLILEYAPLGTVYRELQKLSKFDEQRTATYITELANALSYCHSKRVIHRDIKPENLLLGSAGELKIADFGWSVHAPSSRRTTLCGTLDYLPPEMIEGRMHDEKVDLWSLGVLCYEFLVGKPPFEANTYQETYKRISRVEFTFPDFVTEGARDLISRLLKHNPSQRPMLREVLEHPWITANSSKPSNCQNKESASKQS
Experiment: Kinobeads assay, Aurora A
Format: binding
Conditions: for IC50: lysate of pervanadate-treated Jurkat cells, read-out: Inhibition values (IC50) Aur A

| JAK3/AurA Fold Selectivity | IC50 [µM] | Structure (SMILES) |
| --- | --- | --- |
| 10-50 Fold | 0.1 to 1 | Cn1cc(Nc2ncc3cnn(Cc4cc(F)cc(N5CCOCC5=O)c4F)c3n2)cn1 [Example 73, 4-(2,5-Difluoro-3-((6-((1-methyl-1H-pyrazol-4-yl)amino)-1H-pyrazolo[3,4-d]pyrimidin-1-yl)methyl)phenyl)morpholin-3-one] |
| >50 Fold | 0.1 to 1 | Fc1cc(N2CCOCC2)c(F)c(Cn2ncc3cnc(Nc4cn[nH]c4)nc32)c1F [Example 81, N-(1H-Pyrazol-4-yl)-1-(2,3,6-trifluoro-5-morpholinobenzyl)-1H-pyrazolo[3,4-d]pyrimidin-6-amine] |
| 10-50 Fold | 0.1 to 1 | OCCn1cc(Nc2ncc3cnn(Cc4cc(F)cc(N5CCOCC5)c4)c3n2)cn1 [Example 51, 2-(4-((1-(3-Fluoro-5-morpholinobenzyl)-1H-pyrazolo[3,4-d]pyrimidin-6-yl)amino)-1H-pyrazol-1-yl)ethanol] |
| 3-10 Fold | 0.1 to 1 | OCCn1cc(Nc2ncc3cnn(Cc4c(F)ccc(N5CCOCC5)c4F)c3n2)cn1 [Example 82, 2-(4-((1-(2,6-Difluoro-3-morpholinobenzyl)-1H-pyrazolo[3,4-d]pyrimidin-6-yl)amino)-1H-pyrazol-1-yl)ethanol] |
| 10-50 Fold | 0.1 to 1 | Cn1cc(Nc2ncc3cnn(Cc4cc(F)cc(N5CCOCC5)c4)c3n2)cn1 [Example 49, 1-(3-Fluoro-5-morpholinobenzyl)-N-(1-methyl-1H-pyrazol-4-yl)-1H-pyrazolo[3,4-d]pyrimidin-6-amine] |
| 3-10 Fold | < 0.1 | Cn1cc(Nc2ncc3cnn(Cc4c(F)ccc(N5CCNCC5=O)c4F)c3n2)cn1 [Example 76, 1-(2,4-Difluoro-3-((6-((1-methyl-1H-pyrazol-4-yl)amino)-1H-pyrazolo[3,4-d]pyrimidin-1-yl)methyl)phenyl)piperazin-2-one] |
| 10-50 Fold | 0.1 to 1 | OCCn1cc(Nc2ncc3cnn(Cc4c(F)c(F)cc(N5CCOCC5)c4F)c3n2)cn1 [Example 45, 2-(4-((1-(2,3,6-Trifluoro-5-morpholinobenzyl)-1H-pyrazolo[3,4-d]pyrimidin-6-yl)amino)-1H-pyrazol-1-yl)ethanol] |
| 10-50 Fold | 0.1 to 1 | OCCn1cc(Nc2ncc3cnn(Cc4cc(N5CCOCC5)ccc4F)c3n2)cn1 [Example 44, 2-(4-((1-(2-Fluoro-5-morpholinobenzyl)-1H-pyrazolo[3,4-d]pyrimidin-6-yl)amino)-1H-pyrazol-1-yl)ethanol] |
| 10-50 Fold | 0.1 to 1 | OCCn1cc(Nc2ncc3cnn(Cc4cccc(N5CCNCC5)c4)c3n2)cn1 [Example 47, 2-(4-((1-(3-(piperazin-1-yl)benzyl)-1H-pyrazolo[3,4-d]pyrimidin-6-yl)amino)-1H-pyrazol-1-yl)ethanol] |
| >50 Fold | 1 to 10 | Cn1cc(Nc2ncc3cnn(Cc4cccc(C(=O)N5CCOCC5)c4F)c3n2)cn1 [Example 87, (2-Fluoro-3-((6-((1-methyl-1H-pyrazol-4-yl)amino)-1H-pyrazolo[3,4-d]pyrimidin-1-yl)methyl)phenyl)(morpholino)methanone] |
| 10-50 Fold | 0.1 to 1 | O=C1COCCN1c1cccc(Cn2ncc3cnc(Nc4cnn(CCO)c4)nc32)c1F [Example 46, 4-(2-Fluoro-3-((6-((1-(2-hydroxyethyl)-1H-pyrazol-4-yl)amino)-1H-pyrazolo[3,4-d]pyrimidin-1-yl)methyl)phenyl)morpholin-3-one] |
| 10-50 Fold | 0.1 to 1 | O=C1COCCN1c1cc(F)c(F)c(Cn2ncc3cnc(Nc4cnn(CCO)c4)nc32)c1F [Example 62, 4-(2,4,5-Trifluoro-3-((6-((1-(2-hydroxyethyl)-1H-pyrazol-4-yl)amino)-1H-pyrazolo[3,4-d]pyrimidin-1-yl)methyl)phenyl)morpholin-3-one] |
| 10-50 Fold | 0.1 to 1 | CNC(=O)Cn1cc(Nc2ncc3cnn(Cc4cc(F)cc(N5CCOCC5=O)c4)c3n2)cn1 [Example 68, 2-(4-((1-(3-Fluoro-5-(3-oxomorpholino)benzyl)-1H-pyrazolo[3,4-d]pyrimidin-6-yl)amino)-1H-pyrazol-1-yl)-N-methylacetamide] |

Further lines, the compound ahead of its results:

| Structure (SMILES) | JAK3/AurA Fold Selectivity | IC50 [µM] |
| --- | --- | --- |
| O=C1COCCN1c1cc(F)cc(Cn2ncc3cnc(Nc4cnn(CCO)c4)nc32)c1F [Example 74, 4-(2,5-Difluoro-3-((6-((1-(2-hydroxyethyl)-1H-pyrazol-4-yl)amino)-1H-pyrazolo[3,4-d]pyrimidin-1-yl)methyl)phenyl)morpholin-3-one] | 10-50 Fold | < 0.1 |
| O=C1CNCCN1c1cc(F)cc(Cn2ncc3cnc(Nc4cnn(CCO)c4)nc32)c1 [Example 63, 1-(3-Fluoro-5-((6-((1-(2-hydroxyethyl)-1H-pyrazol-4-yl)amino)-1H-pyrazolo[3,4-d]pyrimidin-1-yl)methyl)phenyl)piperazin-2-one] | 10-50 Fold | 0.1 to 1 |
| COC1CN(c2cccc(Cn3ncc4cnc(Nc5cnn(C)c5)nc43)c2)C1 [Example 65, 1-(3-(3-Methoxyazetidin-1-yl)benzyl)-N-(1-methyl-1H-pyrazol-4-yl)-1H-pyrazolo[3,4-d]pyrimidin-6-amine] | >50 Fold | 1 to 10 |
| O=C1COCCN1c1cc(F)cc(Cn2ncc3cnc(Nc4cnn(CCO)c4)nc32)c1 [Example 58, 4-(3-Fluoro-5-((6-((1-(2-hydroxyethyl)-1H-pyrazol-4-yl)amino)-1H-pyrazolo[3,4-d]pyrimidin-1-yl)methyl)phenyl)morpholin-3-one] | 10-50 Fold | 0.1 to 1 |
| CN(C)CCCn1cc(Nc2ncc3cnn(Cc4c(F)ccc(N5CCOCC5=O)c4F)c3n2)cn1 [Example 75, 4-(3-((6-((1-(3-(Dimethylamino)propyl)-1H-pyrazol-4-yl)amino)-1H-pyrazolo[3,4-d]pyrimidin-1-yl)methyl)-2,4-difluorophenyl)morpholin-3-one] | 10-50 Fold | 0.1 to 1 |
| OCCn1cc(Nc2ncc3cnn(Cc4cc(N5CCOCC5)cc(F)c4F)c3n2)cn1 [Example 56, 2-(4-((1-(2,3-Difluoro-5-morpholinobenzyl)-1H-pyrazolo[3,4-d]pyrimidin-6-yl)amino)-1H-pyrazol-1-yl)ethanol] | >50 Fold | 1 to 10 |
| O=C1COCCN1c1cc(F)cc(Cn2ncc3cnc(Nc4cn[nH]c4)nc32)c1 [Example 84, 4-(3-((6-((1H-Pyrazol-4-yl)amino)-1H-pyrazolo[3,4-d]pyrimidin-1-yl)methyl)-5-fluorophenyl)morpholin-3-one] | >50 Fold | 0.1 to 1 |
| Cn1cc(Nc2ncc3cnn(Cc4cc(F)cc(C(=O)N5CCOCC5)c4)c3n2)cn1 [Example 79, (3-Fluoro-5-((6-((1-methyl-1H-pyrazol-4-yl)amino)-1H-pyrazolo[3,4-d]pyrimidin-1-yl)methyl)phenyl)(morpholino)methanone] | 10-50 Fold | 0.1 to 1 |
| Cn1cc(Nc2ncc3cnn(Cc4cc(F)cc(C(=O)N5CCNCC5)c4)c3n2)cn1 [Example 80, (3-Fluoro-5-((6-((1-methyl-1H-pyrazol-4-yl)amino)-1H-pyrazolo[3,4-d]pyrimidin-1-yl)methyl)phenyl)(piperazin-1-yl)methanone] | 3-10 Fold | 0.1 to 1 |
| COC1CCN(c2cccc(Cn3ncc4cnc(Nc5cnn(C)c5)nc43)c2)CC1 [Example 77, 1-(3-(4-Methoxypiperidin-1-yl)benzyl)-N-(1-methyl-1H-pyrazol-4-yl)-1H-pyrazolo[3,4-d]pyrimidin-6-amine] | 3-10 Fold | 0.1 to 1 |
| O=C1COCCN1c1cc(F)c(F)c(Cn2ncc3cnc(Nc4cnn(CCO)c4)nc32)c1 [Example 59, 4-(3,4-Difluoro-5-((6-((1-(2-hydroxyethyl)-1H-pyrazol-4-yl)amino)-1H-pyrazolo[3,4-d]pyrimidin-1-yl)methyl)phenyl)morpholin-3-one] | 10-50 Fold | 0.1 to 1 |
| Cn1cc(Nc2ncc3cnn(Cc4cc(F)cc(N5CCOCC5=O)c4)c3n2)cn1 [Example 52, 4-(3-Fluoro-5-((6-((1-methyl-1H-pyrazol-4-yl)amino)-1H-pyrazolo[3,4-d]pyrimidin-1-yl)methyl)phenyl)morpholin-3-one] | >50 Fold | 0.1 to 1 |
| Cn1cc(Nc2ncc3cnn(Cc4c(F)c(F)cc(N5CCNCC5)c4F)c3n2)cn1 [Example 66, N-(1-Methyl-1H-pyrazol-4-yl)-1-(2,3,6-trifluoro-5-(piperazin-1-yl)benzyl)-1H-pyrazolo[3,4-d]pyrimidin-6-amine] | 10-50 Fold | 0.1 to 1 |
| O=C1CNCCN1c1cccc(Cn2ncc3cnc(Nc4cnn(CCO)c4)nc32)c1F [Example 55, 1-(2-Fluoro-3-((6-((1-(2-hydroxyethyl)-1H-pyrazol-4-yl)amino)-1H-pyrazolo[3,4-d]pyrimidin-1-yl)methyl)phenyl)piperazin-2-one] | 10-50 Fold | 0.1 to 1 |
| Cn1cc(Nc2ncc3cnn(Cc4c(F)ccc(N5CCOCC5=O)c4F)c3n2)cn1 [Example 69, 4-(2,4-Difluoro-3-((6-((1-methyl-1H-pyrazol-4-yl)amino)-1H-pyrazolo[3,4-d]pyrimidin-1-yl)methyl)phenyl)morpholin-3-one] | 3-10 Fold | < 0.1 |
